# From ChEMBL document CHEMBL1201862, “PubChem BioAssay data set” (2004)
#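 Method: 48-hour compound exposure of cells in 96-well plates, five concentrations, linear interpolation of endpoints. Here, GI50 denotes the concentration required for 50% inhibition of growth.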 Active and inactive are the calls of the source. Cut-off read from the data, not from the text of the source: active = GI50 up to about 1.1 µM and inactive = higher.
# How the values were obtained:
# Test in all cases: NCI-60 cell line screen, 48 h
# BT-549 = system: BT-549
# NCI-H522 = system: NCI-H522
# HT-29 = system: HT-29
# MDA-MB-231 = system: MDA-MB-231
# NCI-H226 = system: NCI-H226
# CAKI-1 = system: CAKI-1
# NCI-H460 = system: NCI-H460
# UACC-62 = system: UACC-62
# SK-MEL-2 = system: SK-MEL-2
# U-251 = system: U-251
# K562 = system: K562
# SK-MEL-28 = system: SK-MEL-28
# HOP-92 = system: HOP-92
# A549 = system: A549
# DU-145 = system: DU-145
# 786-0 = system: 786-0
# COLO 205 = system: COLO 205
# RPMI-8226 = system: RPMI-8226
# HCT-15 = system: HCT-15
# NCI-H23 = system: NCI-H23
# SF-268 = system: SF-268
# SR = system: SR
# SK-MEL-5 = system: SK-MEL-5
# Malme-3M = system: Malme-3M
# T47D = system: T47D
# M14 = system: M14
# SNB-19 = system: SNB-19
# OVCAR-8 = system: OVCAR-8
# OVCAR-3 = system: OVCAR-3
# SF-295 = system: SF-295
# HCT-116 = system: HCT-116
# RXF 393 = system: RXF 393
# MDA-N = system: MDA-N
# MDA-MB-435 = system: MDA-MB-435
# Hs-578T = system: Hs-578T
# MOLT-4 = system: MOLT-4
# HOP-62 = system: HOP-62
# HCC 2998 = system: HCC 2998
# OVCAR-5 = system: OVCAR-5
# MCF7 = system: MCF7
# SN12C = system: SN12C
# HL-60 = system: HL-60
# NCI/ADR-RES = system: NCI/ADR-RES
# UACC-257 = system: UACC-257
# ACHN = system: ACHN
# CCRF-CEM = system: CCRF-CEM
# EKVX = system: EKVX
# UO-31 = system: UO-31
# SW-620 = system: SW-620
# LOX IMVI = system: LOX IMVI
# IGROV-1 = system: IGROV-1
# SF-539 = system: SF-539
# TK-10 = system: TK-10
# PC-3 = system: PC-3
# SNB-75 = system: SNB-75
# OVCAR-4 = system: OVCAR-4
# A498 = system: A498
# SK-OV-3 = system: SK-OV-3
# KM12 = system: KM12
smiles,measurement,setting,value
COc1cc2c(c3oc4c(O)cccc4c(=O)c13)CC(C(C)(O)CO)O2 (centres undefined),GI50,BT-549,34.5 µM (inactive)
same,GI50,NCI-H522,35.1 µM (inactive)
same,GI50,HT-29,43.8 µM (inactive)
same,GI50,MDA-MB-231,63.7 µM (inactive)
same,GI50,NCI-H226,> 100 µM (inactive)
same,GI50,CAKI-1,39.9 µM (inactive)
same,GI50,NCI-H460,96.8 µM (inactive)
same,GI50,UACC-62,27.1 µM (inactive)
same,GI50,SK-MEL-2,57.4 µM (inactive)
same,GI50,U-251,97.9 µM (inactive)
same,GI50,K562,55.6 µM (inactive)
same,GI50,SK-MEL-28,> 100 µM (inactive)
same,GI50,HOP-92,37.2 µM (inactive)
same,GI50,A549,> 100 µM (inactive)
same,GI50,DU-145,> 100 µM (inactive)
same,GI50,786-0,65.6 µM (inactive)
same,GI50,COLO 205,> 100 µM (inactive)
same,GI50,RPMI-8226,> 100 µM (inactive)
same,GI50,HCT-15,> 100 µM
same,GI50,NCI-H23,95.7 µM (inactive)
same,GI50,SF-268,46.8 µM (inactive)
same,GI50,SR,34.1 µM (inactive)
same,GI50,SK-MEL-5,53 µM (inactive)
same,GI50,Malme-3M,47.5 µM (inactive)
same,GI50,T47D,75.7 µM (inactive)
same,GI50,M14,> 100 µM (inactive)
same,GI50,SNB-19,94.4 µM (inactive)
same,GI50,OVCAR-8,53.1 µM (inactive)
same,GI50,OVCAR-3,> 100 µM (inactive)
same,GI50,SF-295,> 100 µM (inactive)
same,GI50,HCT-116,40.6 µM (inactive)
same,GI50,RXF 393,7.74 µM (inactive)
same,GI50,MDA-N,94.8 µM (inactive)
same,GI50,MDA-MB-435,> 100 µM (inactive)
same,GI50,Hs-578T,44.3 µM (inactive)
same,GI50,MOLT-4,15.7 µM (inactive)
same,GI50,HOP-62,> 100 µM (inactive)
same,GI50,HCC 2998,> 100 µM (inactive)
same,GI50,OVCAR-5,> 100 µM (inactive)
same,GI50,MCF7,19.5 µM (inactive)
same,GI50,SN12C,60.1 µM (inactive)
same,GI50,HL-60,83.2 µM (inactive)
same,GI50,NCI/ADR-RES,> 100 µM (inactive)
same,GI50,UACC-257,> 100 µM (inactive)
same,GI50,ACHN,59.6 µM (inactive)
same,GI50,CCRF-CEM,21.3 µM (inactive)
same,GI50,EKVX,> 100 µM (inactive)
same,GI50,UO-31,> 100 µM (inactive)
same,GI50,SW-620,47.6 µM (inactive)
same,GI50,LOX IMVI,25 µM (inactive)
same,GI50,IGROV-1,41.7 µM (inactive)
same,GI50,SF-539,60.3 µM (inactive)
same,GI50,TK-10,> 100 µM (inactive)
same,GI50,PC-3,> 100 µM (inactive)
CCOC(=O)c1cc(=O)oc2c1N(C)c1ncccc1N2,GI50,BT-549,> 100 µM (inactive)
same,GI50,MDA-MB-231,69.5 µM (inactive)
same,GI50,NCI-H226,> 100 µM (inactive)
same,GI50,SNB-75,> 100 µM (inactive)
same,GI50,CAKI-1,> 100 µM (inactive)
same,GI50,NCI-H460,> 100 µM (inactive)
same,GI50,UACC-62,> 100 µM (inactive)
same,GI50,SK-MEL-2,> 100 µM (inactive)
same,GI50,U-251,> 100 µM (inactive)
same,GI50,K562,> 100 µM (inactive)
same,GI50,OVCAR-4,> 100 µM (inactive)
same,GI50,SK-MEL-28,> 100 µM (inactive)
same,GI50,A549,> 100 µM (inactive)
same,GI50,DU-145,> 100 µM (inactive)
same,GI50,786-0,> 100 µM (inactive)
same,GI50,COLO 205,> 100 µM (inactive)
same,GI50,RPMI-8226,> 100 µM (inactive)
same,GI50,HCT-15,> 100 µM
same,GI50,NCI-H23,> 100 µM (inactive)
same,GI50,SF-268,> 100 µM (inactive)
same,GI50,SR,63.4 µM (inactive)
same,GI50,T47D,> 100 µM (inactive)
same,GI50,M14,> 100 µM (inactive)
same,GI50,SNB-19,> 100 µM (inactive)
same,GI50,OVCAR-8,> 100 µM (inactive)
same,GI50,OVCAR-3,> 100 µM (inactive)
same,GI50,SF-295,> 100 µM (inactive)
same,GI50,HCT-116,> 100 µM (inactive)
same,GI50,RXF 393,> 100 µM (inactive)
same,GI50,MDA-N,> 100 µM (inactive)
same,GI50,MDA-MB-435,> 100 µM (inactive)
same,GI50,Hs-578T,> 100 µM (inactive)
same,GI50,MOLT-4,> 100 µM (inactive)
same,GI50,HOP-62,> 100 µM (inactive)
same,GI50,HCC 2998,> 100 µM (inactive)
same,GI50,OVCAR-5,> 100 µM (inactive)
same,GI50,MCF7,> 100 µM (inactive)
same,GI50,SN12C,> 100 µM (inactive)
same,GI50,A498,> 100 µM (inactive)
same,GI50,NCI/ADR-RES,> 100 µM (inactive)
same,GI50,UACC-257,> 100 µM (inactive)
same,GI50,SK-OV-3,> 100 µM (inactive)
same,GI50,ACHN,86.9 µM (inactive)
same,GI50,UO-31,50.9 µM (inactive)
same,GI50,SW-620,> 100 µM (inactive)
same,GI50,LOX IMVI,> 100 µM (inactive)
same,GI50,KM12,> 100 µM (inactive)
same,GI50,TK-10,> 100 µM (inactive)
same,GI50,PC-3,> 100 µM (inactive)
CCCSc1cc(Cl)c(C)cc1S(=O)(=O)n1ccnc1O,GI50,BT-549,> 100 µM (inactive)
same,GI50,NCI-H522,> 100 µM (inactive)
same,GI50,HT-29,> 100 µM (inactive)
same,GI50,MDA-MB-231,> 100 µM (inactive)
same,GI50,NCI-H226,> 100 µM (inactive)
same,GI50,SNB-75,20.1 µM (inactive)
same,GI50,CAKI-1,> 100 µM (inactive)
same,GI50,NCI-H460,> 100 µM (inactive)
same,GI50,UACC-62,> 100 µM (inactive)
same,GI50,SK-MEL-2,> 100 µM (inactive)
same,GI50,U-251,> 100 µM (inactive)
same,GI50,K562,> 100 µM (inactive)
same,GI50,OVCAR-4,> 100 µM (inactive)
same,GI50,SK-MEL-28,> 100 µM (inactive)
same,GI50,A549,> 100 µM (inactive)
same,GI50,DU-145,> 100 µM (inactive)
same,GI50,786-0,> 100 µM (inactive)
same,GI50,COLO 205,> 100 µM (inactive)
same,GI50,HCT-15,> 100 µM
same,GI50,NCI-H23,> 100 µM (inactive)
same,GI50,SF-268,> 100 µM (inactive)
same,GI50,SR,> 100 µM (inactive)
same,GI50,SK-MEL-5,> 100 µM (inactive)
same,GI50,Malme-3M,> 100 µM (inactive)
same,GI50,T47D,> 100 µM (inactive)
same,GI50,M14,> 100 µM (inactive)
same,GI50,SNB-19,> 100 µM (inactive)
same,GI50,OVCAR-8,> 100 µM (inactive)
same,GI50,OVCAR-3,> 100 µM (inactive)
same,GI50,SF-295,> 100 µM (inactive)
same,GI50,HCT-116,> 100 µM (inactive)
same,GI50,RXF 393,> 100 µM (inactive)
same,GI50,MDA-N,> 100 µM (inactive)
same,GI50,MDA-MB-435,> 100 µM (inactive)
same,GI50,Hs-578T,> 100 µM (inactive)
same,GI50,MOLT-4,> 100 µM (inactive)
same,GI50,HOP-62,> 100 µM (inactive)
same,GI50,HCC 2998,> 100 µM (inactive)
same,GI50,OVCAR-5,> 100 µM (inactive)
same,GI50,MCF7,> 100 µM (inactive)
same,GI50,SN12C,> 100 µM (inactive)
same,GI50,A498,> 100 µM (inactive)
same,GI50,NCI/ADR-RES,> 100 µM (inactive)
same,GI50,UACC-257,> 100 µM (inactive)
same,GI50,SK-OV-3,> 100 µM (inactive)
same,GI50,ACHN,> 100 µM (inactive)
same,GI50,CCRF-CEM,> 100 µM (inactive)
same,GI50,EKVX,> 100 µM (inactive)
same,GI50,UO-31,> 100 µM (inactive)
same,GI50,SW-620,> 100 µM (inactive)
same,GI50,LOX IMVI,> 100 µM (inactive)
same,GI50,KM12,> 100 µM (inactive)
same,GI50,IGROV-1,> 100 µM (inactive)
same,GI50,SF-539,> 100 µM (inactive)
same,GI50,TK-10,> 100 µM (inactive)
same,GI50,PC-3,> 100 µM (inactive)
